Measurements published in the kinase profiling compilation of Christmann-Franck et al. (2016).

Experiments:
Test in all cases: KINOMEscan competition binding
Details in all cases: compound 10.0 µM
[1] = target: NLK (human) (UniProt Q9UBE8)
[2] = target: EPHB1 (human) (UniProt P54762)
[3] = target: MAPK4 (human) (UniProt P31152)
[4] = target: MAP3K12 (human) (UniProt Q12852)
[5] = target: EIF2AK2 (human) (UniProt P19525)
[6] = target: IRAK4 (human) (UniProt Q9NWZ3)
[7] = target: MERTK (human) (UniProt Q12866)
[8] = target: MKNK2 (human) (UniProt Q9HBH9)
[9] = target: CDK4 CCND3 (human) (UniProt P11802+P30281)
[10] = target: PAK2 (human) (UniProt Q13177)
[11] = tested on: BMX (human), P51813 [V600E]
[12] = target: CDC2L2 (human) (UniProt Q9UQ88)
[13] = target: ANKK1 (human) (UniProt Q8NFD2)
[14] = target: PLK4 (human) (UniProt O00444)
[15] = target: CDKL2 (human) (UniProt Q92772)
[16] = target: SRPK2 (human) (UniProt P78362)
[17] = target: MAPK11 (human) (UniProt Q15759)
[18] = target: DDR1 (human) (UniProt Q08345)
[19] = target: MAP2K4 (human) (UniProt P45985)
[20] = target: GRK1 (human) (UniProt Q15835)
[21] = target: STK10 (human) (UniProt O94804)
[22] = target: BMPR1A (human) (UniProt P36894)
[23] = target: MAPK6 (human) (UniProt Q16659)
[24] = target: FGFR3 (human) (UniProt P22607)
[25] = target: PAK3 (human) (UniProt O75914)
[26] = target: LYN (human) (UniProt P07948)
[27] = target: BRSK1 (human) (UniProt Q8TDC3)
[28] = tested on: KIT (human), P10721 [D816H]
[29] = target: STK17B (human) (UniProt O94768)
[30] = target: EPHB6 (human) (UniProt O15197)
[31] = target: STK36 (human) (UniProt Q9NRP7)
[32] = target: DSTYK (human) (UniProt Q6XUX3)
[33] = target: LCK (human) (UniProt P06239)
[34] = target: MARK1 (human) (UniProt Q9P0L2)
[35] = target: SRPK3 (human) (UniProt Q9UPE1)
[36] = target: MAPK8 (human) (UniProt P45983)
[37] = target: TTK (human) (UniProt P33981)
[38] = target: MAPK13 (human) (UniProt O15264)
[39] = tested on: EGFR (human), P00533 [G719C]
[40] = tested on: EGFR (human), P00533 [L858R]

Sequence of EPHB6 (human) (O15197 whole entry, looked up): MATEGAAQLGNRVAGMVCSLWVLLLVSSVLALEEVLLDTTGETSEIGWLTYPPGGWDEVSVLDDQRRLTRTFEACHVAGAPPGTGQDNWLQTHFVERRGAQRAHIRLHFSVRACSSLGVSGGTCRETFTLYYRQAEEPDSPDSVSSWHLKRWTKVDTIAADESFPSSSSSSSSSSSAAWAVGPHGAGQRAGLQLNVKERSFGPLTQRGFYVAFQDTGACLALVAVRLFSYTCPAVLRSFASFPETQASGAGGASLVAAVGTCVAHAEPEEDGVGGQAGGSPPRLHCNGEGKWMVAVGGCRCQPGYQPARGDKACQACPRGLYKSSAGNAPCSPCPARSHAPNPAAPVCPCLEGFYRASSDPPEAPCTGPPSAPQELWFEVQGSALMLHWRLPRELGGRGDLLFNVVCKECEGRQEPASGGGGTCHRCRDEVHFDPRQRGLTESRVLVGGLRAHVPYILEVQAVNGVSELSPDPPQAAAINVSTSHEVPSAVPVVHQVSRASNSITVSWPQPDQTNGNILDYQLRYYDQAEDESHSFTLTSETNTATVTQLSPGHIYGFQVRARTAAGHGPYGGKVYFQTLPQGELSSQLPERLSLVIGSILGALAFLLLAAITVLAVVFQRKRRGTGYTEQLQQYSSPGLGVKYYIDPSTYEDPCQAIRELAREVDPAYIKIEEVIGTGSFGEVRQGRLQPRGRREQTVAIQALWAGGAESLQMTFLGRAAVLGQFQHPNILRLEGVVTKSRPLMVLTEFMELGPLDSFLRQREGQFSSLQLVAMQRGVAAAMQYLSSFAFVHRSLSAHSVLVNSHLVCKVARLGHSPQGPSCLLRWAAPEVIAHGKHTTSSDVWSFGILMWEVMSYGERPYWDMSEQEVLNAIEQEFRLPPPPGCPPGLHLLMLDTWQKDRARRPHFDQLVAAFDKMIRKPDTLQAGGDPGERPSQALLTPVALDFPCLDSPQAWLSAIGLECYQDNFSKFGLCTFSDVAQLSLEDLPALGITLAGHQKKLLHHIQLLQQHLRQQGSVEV
Sequence of PAK2 (human) (Q13177 whole entry, looked up): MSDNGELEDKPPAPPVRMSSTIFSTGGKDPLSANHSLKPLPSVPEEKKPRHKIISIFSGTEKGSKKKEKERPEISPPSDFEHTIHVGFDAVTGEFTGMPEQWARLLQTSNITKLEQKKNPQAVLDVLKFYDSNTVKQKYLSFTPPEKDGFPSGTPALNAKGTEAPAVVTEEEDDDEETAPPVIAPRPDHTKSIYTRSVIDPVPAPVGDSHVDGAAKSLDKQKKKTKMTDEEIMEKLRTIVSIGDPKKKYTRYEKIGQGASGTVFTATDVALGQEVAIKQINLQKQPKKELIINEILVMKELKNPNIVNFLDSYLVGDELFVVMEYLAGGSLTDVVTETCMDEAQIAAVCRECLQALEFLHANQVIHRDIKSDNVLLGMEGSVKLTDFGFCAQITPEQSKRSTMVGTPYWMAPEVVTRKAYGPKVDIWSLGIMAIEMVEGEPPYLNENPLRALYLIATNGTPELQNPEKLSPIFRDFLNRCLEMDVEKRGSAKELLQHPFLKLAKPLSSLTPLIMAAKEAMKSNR
Sequence of CDC2L2 (human) (Q9UQ88 whole entry, looked up): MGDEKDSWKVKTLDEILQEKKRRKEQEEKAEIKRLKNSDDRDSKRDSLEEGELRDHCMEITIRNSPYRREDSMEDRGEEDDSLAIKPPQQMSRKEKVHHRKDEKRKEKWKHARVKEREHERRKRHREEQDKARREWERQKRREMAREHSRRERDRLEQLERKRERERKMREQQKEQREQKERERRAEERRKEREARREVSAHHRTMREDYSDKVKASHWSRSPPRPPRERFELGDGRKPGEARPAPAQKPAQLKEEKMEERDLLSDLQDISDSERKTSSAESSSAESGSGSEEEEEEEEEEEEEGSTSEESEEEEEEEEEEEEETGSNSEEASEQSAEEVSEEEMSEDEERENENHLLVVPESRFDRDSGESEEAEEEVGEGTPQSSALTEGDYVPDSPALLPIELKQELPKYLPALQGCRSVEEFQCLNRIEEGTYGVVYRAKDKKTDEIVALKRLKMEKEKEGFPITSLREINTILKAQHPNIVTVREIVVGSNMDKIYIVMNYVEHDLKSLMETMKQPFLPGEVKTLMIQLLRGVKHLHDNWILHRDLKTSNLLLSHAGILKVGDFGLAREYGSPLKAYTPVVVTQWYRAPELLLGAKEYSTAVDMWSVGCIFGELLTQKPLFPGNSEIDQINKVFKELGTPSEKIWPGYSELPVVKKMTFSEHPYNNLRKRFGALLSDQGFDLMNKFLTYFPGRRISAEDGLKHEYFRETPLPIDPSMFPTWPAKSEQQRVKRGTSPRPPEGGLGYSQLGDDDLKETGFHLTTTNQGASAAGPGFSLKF
Sequence of STK36 (human) (Q9NRP7 whole entry, looked up): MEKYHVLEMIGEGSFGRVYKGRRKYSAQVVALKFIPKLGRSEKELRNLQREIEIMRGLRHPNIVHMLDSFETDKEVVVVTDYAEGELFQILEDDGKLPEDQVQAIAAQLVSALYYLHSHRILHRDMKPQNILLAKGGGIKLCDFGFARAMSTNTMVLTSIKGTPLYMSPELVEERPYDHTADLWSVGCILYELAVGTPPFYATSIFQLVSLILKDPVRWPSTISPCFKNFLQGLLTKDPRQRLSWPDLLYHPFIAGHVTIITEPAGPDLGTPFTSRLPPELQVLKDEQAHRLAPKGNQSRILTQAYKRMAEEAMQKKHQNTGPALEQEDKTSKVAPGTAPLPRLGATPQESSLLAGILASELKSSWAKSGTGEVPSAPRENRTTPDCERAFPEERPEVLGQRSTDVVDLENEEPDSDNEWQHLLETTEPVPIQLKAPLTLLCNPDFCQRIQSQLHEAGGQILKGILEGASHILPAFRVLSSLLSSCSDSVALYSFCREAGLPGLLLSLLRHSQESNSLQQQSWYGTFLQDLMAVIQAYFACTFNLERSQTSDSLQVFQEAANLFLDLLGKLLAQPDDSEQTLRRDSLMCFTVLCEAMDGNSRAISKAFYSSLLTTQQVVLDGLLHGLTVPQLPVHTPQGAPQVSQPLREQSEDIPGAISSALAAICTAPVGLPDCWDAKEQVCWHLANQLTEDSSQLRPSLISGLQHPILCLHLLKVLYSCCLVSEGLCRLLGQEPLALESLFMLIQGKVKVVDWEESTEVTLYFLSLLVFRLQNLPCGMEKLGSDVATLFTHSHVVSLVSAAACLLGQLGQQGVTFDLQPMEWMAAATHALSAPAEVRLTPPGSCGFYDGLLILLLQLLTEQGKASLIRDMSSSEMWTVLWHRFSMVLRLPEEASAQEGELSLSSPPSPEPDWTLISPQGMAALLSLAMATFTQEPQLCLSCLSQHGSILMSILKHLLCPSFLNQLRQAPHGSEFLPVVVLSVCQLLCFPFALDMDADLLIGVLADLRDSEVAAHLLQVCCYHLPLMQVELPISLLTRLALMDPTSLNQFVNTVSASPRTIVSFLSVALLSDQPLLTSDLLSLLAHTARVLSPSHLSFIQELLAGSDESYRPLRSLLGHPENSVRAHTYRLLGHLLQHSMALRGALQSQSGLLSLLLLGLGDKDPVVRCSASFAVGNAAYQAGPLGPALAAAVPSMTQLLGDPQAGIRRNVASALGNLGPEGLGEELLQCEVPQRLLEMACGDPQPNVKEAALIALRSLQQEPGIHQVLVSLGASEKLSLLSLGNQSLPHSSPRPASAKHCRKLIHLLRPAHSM
Sequence of MKNK2 (human) (Q9HBH9 whole entry, looked up): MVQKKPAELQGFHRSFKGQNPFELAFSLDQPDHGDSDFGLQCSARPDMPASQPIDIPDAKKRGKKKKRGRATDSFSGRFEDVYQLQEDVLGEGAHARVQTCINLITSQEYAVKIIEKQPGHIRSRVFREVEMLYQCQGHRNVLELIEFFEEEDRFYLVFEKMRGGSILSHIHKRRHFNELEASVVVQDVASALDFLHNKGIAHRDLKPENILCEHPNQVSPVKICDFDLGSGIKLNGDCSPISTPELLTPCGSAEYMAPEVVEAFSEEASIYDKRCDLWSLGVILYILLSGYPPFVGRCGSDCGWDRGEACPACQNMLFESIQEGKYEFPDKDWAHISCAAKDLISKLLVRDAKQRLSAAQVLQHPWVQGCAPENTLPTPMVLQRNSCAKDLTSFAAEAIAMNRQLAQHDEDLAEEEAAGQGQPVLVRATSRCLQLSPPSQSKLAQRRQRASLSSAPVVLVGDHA
Sequence of BRSK1 (human) (Q8TDC3 whole entry, looked up): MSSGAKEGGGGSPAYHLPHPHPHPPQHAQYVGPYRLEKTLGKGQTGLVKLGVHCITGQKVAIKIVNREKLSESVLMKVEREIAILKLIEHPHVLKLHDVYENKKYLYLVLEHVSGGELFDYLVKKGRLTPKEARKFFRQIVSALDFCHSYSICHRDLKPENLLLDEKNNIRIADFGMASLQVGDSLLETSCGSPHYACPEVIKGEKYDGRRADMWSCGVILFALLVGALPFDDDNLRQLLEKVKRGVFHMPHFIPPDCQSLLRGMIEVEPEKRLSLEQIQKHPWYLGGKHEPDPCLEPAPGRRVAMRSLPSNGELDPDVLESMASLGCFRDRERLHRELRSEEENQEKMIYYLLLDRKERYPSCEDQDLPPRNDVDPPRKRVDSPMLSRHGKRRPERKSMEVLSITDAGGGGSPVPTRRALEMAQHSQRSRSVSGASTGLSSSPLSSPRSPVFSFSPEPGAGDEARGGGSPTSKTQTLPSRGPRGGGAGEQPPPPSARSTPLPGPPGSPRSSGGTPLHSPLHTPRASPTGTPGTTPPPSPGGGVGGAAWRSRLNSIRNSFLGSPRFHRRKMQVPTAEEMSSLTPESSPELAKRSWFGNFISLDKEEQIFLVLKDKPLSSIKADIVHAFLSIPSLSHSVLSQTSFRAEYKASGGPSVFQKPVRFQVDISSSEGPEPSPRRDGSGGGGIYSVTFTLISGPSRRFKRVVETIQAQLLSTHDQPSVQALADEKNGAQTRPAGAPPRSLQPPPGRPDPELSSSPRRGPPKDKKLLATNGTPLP

Row | Structure (SMILES) | kinase still bound, per cent of control [3] [%] | kinase still bound, per cent of control [4] [%] | kinase still bound, per cent of control [5] [%] | kinase still bound, per cent of control [7] [%] | kinase still bound, per cent of control [8] [%] | kinase still bound, per cent of control [10] [%] | kinase still bound, per cent of control [12] [%] | kinase still bound, per cent of control [13] [%] | kinase still bound, per cent of control [15] [%] | kinase still bound, per cent of control [16] [%] | kinase still bound, per cent of control [17] [%] | kinase still bound, per cent of control [18] [%] | kinase still bound, per cent of control [20] [%] | kinase still bound, per cent of control [21] [%] | kinase still bound, per cent of control [22] [%] | kinase still bound, per cent of control [23] [%] | kinase still bound, per cent of control [25] [%] | kinase still bound, per cent of control [27] [%] | kinase still bound, per cent of control [30] [%] | kinase still bound, per cent of control [31] [%] | further results
1 | CCc1nc(-c2cccc(C)c2)c(-c2ccnc(NC(=O)c3ccccc3)c2)s1 | 90 | 100 | 94 | 100 | 94 | 85 | 90 | 83 | 80 | 73 | 0 | 2.8 | 100 | 59 | 14 | 85 | 82 | 93 | 16 | 4.8 | kinase still bound, per cent of control [1]: 4%; kinase still bound, per cent of control [2]: 83%; kinase still bound, per cent of control [6]: 100%; kinase still bound, per cent of control [9]: 92%; kinase still bound, per cent of control [11]: 23%; kinase still bound, per cent of control [14]: 100%; kinase still bound, per cent of control [19]: 95%; kinase still bound, per cent of control [24]: 86%; kinase still bound, per cent of control [26]: 54%; kinase still bound, per cent of control [28]: 57%; kinase still bound, per cent of control [29]: 91%; kinase still bound, per cent of control [32]: 100%; kinase still bound, per cent of control [33]: 41%; kinase still bound, per cent of control [34]: 100%; kinase still bound, per cent of control [35]: 100%; kinase still bound, per cent of control [36]: 0.3%; kinase still bound, per cent of control [37]: 70%
2 | Cc1cn(-c2cc(C(=O)Nc3ccc(C)c(NC(=O)c4ccno4)c3)cc(C(F)(F)F)c2)cn1 | 100 | 100 | 100 | 100 | 100 | 100 | 100 | 100 | 100 | 100 | 0 | 0.1 | 100 | 100 | 100 | 100 | 100 | 100 | 100 | 100 | kinase still bound, per cent of control [1]: 100%; kinase still bound, per cent of control [2]: 21%; kinase still bound, per cent of control [38]: 100%; kinase still bound, per cent of control [11]: 1.3%; kinase still bound, per cent of control [14]: 100%; kinase still bound, per cent of control [19]: 100%; kinase still bound, per cent of control [24]: 100%; kinase still bound, per cent of control [26]: 4.8%; kinase still bound, per cent of control [29]: 100%; kinase still bound, per cent of control [33]: 4%; kinase still bound, per cent of control [34]: 100%; kinase still bound, per cent of control [35]: 100%; kinase still bound, per cent of control [36]: 100%; kinase still bound, per cent of control [37]: 100%; kinase still bound, per cent of control [39]: 100%; kinase still bound, per cent of control [40]: 100%
3 | CCN(CCO)CCCOc1ccc2c(Nc3cc(CC(=O)Nc4cccc(F)c4)[nH]n3)ncnc2c1 | 100 | 58 | 100 | 77 | 6.4 | 100 | 5 | 11 | 18 | 92 | 100 | 12 | 100 | 11 | 29 | 100 | 57 | 64 | 0.8 | 37 | kinase still bound, per cent of control [1]: 100%; kinase still bound, per cent of control [2]: 98%; kinase still bound, per cent of control [6]: 76%; kinase still bound, per cent of control [9]: 100%; kinase still bound, per cent of control [11]: 100%; kinase still bound, per cent of control [19]: 100%; kinase still bound, per cent of control [24]: 92%; kinase still bound, per cent of control [26]: 18%; kinase still bound, per cent of control [28]: 34%; kinase still bound, per cent of control [29]: 93%; kinase still bound, per cent of control [32]: 14%; kinase still bound, per cent of control [34]: 98%; kinase still bound, per cent of control [35]: 100%; kinase still bound, per cent of control [36]: 59%; kinase still bound, per cent of control [37]: 49%
4 | CC(=O)c1c(C)c2cnc(Nc3ccc(N4CCNCC4)cn3)nc2n(C2CCCC2)c1=O | 87 | 47 | 30 | 39 | 20 | 93 | 78 | 79 | 6.8 | 68 | 96 | 60 | 89 | 23 | 42 | 57 | 20 | 68 | 65 | 78 | kinase still bound, per cent of control [6]: 39%; kinase still bound, per cent of control [9]: 2%; kinase still bound, per cent of control [14]: 3.2%; kinase still bound, per cent of control [28]: 56%; kinase still bound, per cent of control [32]: 5%; kinase still bound, per cent of control [34]: 35%; kinase still bound, per cent of control [35]: 23%; kinase still bound, per cent of control [36]: 1.6%; kinase still bound, per cent of control [37]: 26%
